Where a name gives a salt, the structure may show the parent alone.
Assays:
A2780 cells = assay: Cell proliferation assay (Cell Titer-Glo), A2780 cells; format: cell-based; conditions: Homo sapiens, typically 72 hrs post-treatment
Procedure: (§1) The effects of test compounds were studied in five cell lines with various histotypes. The cancer cells (Table 4) were harvested during the logarithmic growth period and counted. Adjust cell concentrations to the appropriated number with respective medium, and add 90 μL cell suspensions to 96-well plates. After cells were seeded, the plates were shaken gently to distribute cells evenly and incubated at 37° C., 5% CO2 on day 1.
(§2) Cells were treated with test compounds at 9 concentrations within a desired concentration range (e.g. 1.5 nM-10 μM) on day 2 by series diluting the test compound stock solution (10 mM in DMSO) with culture medium. Cell viability was assessed by Cell Titer-Glo® as recommended by Promega (Cat. No.: G7572, Promega) typically 72 hrs post-treatment.
(§3) Cell viability data were plotted using GraphPad Prism (version 5, GraphPad Software, Inc., San Diego, Calif.). In addition, a nonlinear regression model with a sigmoidal dose response and variable slope within GraphPad Prism was used to calculate the IC50 value of individual test compounds.

A427 cells [1] = assay: Cell viability in combination with cisplatin in A427 cells (resazurin); format: cell-based; conditions: Homo sapiens, A-427, 24 hr 2.5 μM cisplatin
Procedure: The activity of test compounds in combination with cisplatin in A427 cells was determined. Cells were seeded in a 96 well plate at 2000 cells/well. The next day, cells were treated with 2.5 μM cisplatin or vehicle (1×PBS) and incubated in culture conditions (37° C., 5% CO2) for 24 hr. Following the incubation, culture medium was replaced with medium containing test compound and cisplatin/vehicle, and cells were further incubated in culture conditions for another 72 hr. By this procedure, cisplatin was either continued or discontinued after an initial 24-hr incubation. Addition of test compound was in concentrations needed to obtain an 8-point dose response curve, with concentrations prepared by 3-fold dilution. The assay was terminated upon addition of resazurin, incubation for 4 hr in culture conditions and measurement of fluorescence at excitation and emission wavelengths of 535 and 590 nm, respectively.

A427 cells [2] = assay: Cytotoxicity assay (resazurin), A427 cells, 72 hr; format: cell-based; conditions: Homo sapiens, A-427, read-out: Cell Viability A427 IC50
Summary of the method: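 Cells seeded at 1500 per well, grown 24 hr at 37° C, 5% CO2, then exposed to serially diluted compounds for 72–96 hr before 4–6 hr with 1 mM resazurin (Ex 535/Em 590 nm). Blank-subtracted signal normalised to DMSO control; percent inhibition used for IC50.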

A427 cells [3] = assay: Cell proliferation assay (Cell Titer-Glo), A427 cells; format: cell-based; conditions: Homo sapiens, A-427, typically 72 hrs post-treatment
Procedure: as §1, §2, §3

WEE1 kinase enzyme = WEE1 kinase enzyme (Homo sapiens (Human), UniProt P30291); assay: WEE1 IC50 determination, LanthaScreen Terbium labeled TR-FRET kinase assay; format: biochemical; conditions: WEE1 enzyme 1 nM
WEE1 kinase enzyme, sequence (P30291 whole entry): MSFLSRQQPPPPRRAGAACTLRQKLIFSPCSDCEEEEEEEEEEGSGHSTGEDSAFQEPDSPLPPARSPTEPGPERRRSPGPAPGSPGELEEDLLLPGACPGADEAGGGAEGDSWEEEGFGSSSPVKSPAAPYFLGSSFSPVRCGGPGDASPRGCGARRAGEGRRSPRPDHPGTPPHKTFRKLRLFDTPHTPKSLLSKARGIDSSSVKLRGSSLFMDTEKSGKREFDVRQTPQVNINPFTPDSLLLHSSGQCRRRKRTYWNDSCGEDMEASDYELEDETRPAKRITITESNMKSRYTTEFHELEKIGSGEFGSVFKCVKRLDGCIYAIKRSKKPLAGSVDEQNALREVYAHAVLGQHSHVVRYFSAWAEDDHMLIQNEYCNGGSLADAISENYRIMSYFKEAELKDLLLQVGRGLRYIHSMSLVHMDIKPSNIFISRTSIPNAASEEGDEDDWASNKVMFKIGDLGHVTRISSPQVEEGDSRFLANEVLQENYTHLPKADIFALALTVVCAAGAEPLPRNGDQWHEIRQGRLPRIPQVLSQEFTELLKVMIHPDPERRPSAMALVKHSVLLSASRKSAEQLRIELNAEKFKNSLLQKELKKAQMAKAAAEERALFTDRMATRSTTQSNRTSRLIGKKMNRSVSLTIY
Summary of the method: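 Human WEE1 (1 nM) was preincubated 10 min with 3-fold diluted compounds, then ATP ([…]) and fluorescent PolyGT substrate (200 nM) were added for 1 h at room temperature in the dark. Terbium antibody/EDTA stop, TR-FRET read (ex 340, em 495/520 nm); IC50 from four-parameter logistic fit of percent inhibition.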

A549 cells = assay: Cytotoxicity assay (resazurin), A549 cells, 96 hr; format: cell-based; conditions: Homo sapiens, read-out: Cell Viability A549 IC50
Procedure: (§4) A549 (CCL-185; ATCC) and A427 (HTB-53; ATCC), both lung epithelial cell lines were seeded in their respective medium (DMEM/MEM, 10569044/41090101; Gibco) at a cell count of 1500 cells per 100 μL per well in a 96 well edge plate (167425; ThermoFisher). Cells were allowed to grow at 37° C. for 24 hr in 5% CO2 environment (culture conditions) in a Nuaire incubator (humidified). Serially diluted test compounds (100 μL) within the desired testing concentration ranges were added to the culture plate were further incubated in culture conditions for 72 hr and 96 hr for A427 and A549 respectively. The experiment was terminated at the designated incubation time by replacing the medium with 100 μL of 1 mM of resazurin (R7017; Sigma) prepared in respective culture medium, and the plates were further incubated in culture conditions for 4-6 hr. Fluorescence was recorded using a multimodal plate reader (Biotek Synergy Neo) at an excitation wavelength of 535 nm and emission wavelength of 590 nm to obtain relative fluorescence units. Data analysis was done by subtracting the background fluorescence (only medium blank) value from each reading and then normalizing with the vehicle control (DMSO treated cells) to obtain percent survival/proliferation. Percent survival was then subtracted by 100 to get the percent inhibition of proliferation which was used to calculate IC50 values. Potency of compounds in other cell lines (As-Pc-1, Panc-10.05, MDAMB231, A172) was determined in an analogous manner.

Panc-10.05 cells = assay: Cytotoxicity assay (resazurin), Panc-10.05 cells; format: cell-based; conditions: Homo sapiens, Panc1005, read-out: Cell Viability Panc 10.05 IC50
Procedure: as §4

MDAMB231 cells = assay: Cytotoxicity assay (resazurin), MDAMB231 cells; format: cell-based; conditions: Homo sapiens, MDA-MB-231, read-out: Cell Viability MDAMB 231 IC50
Procedure: as §4

A172 cells = assay: Cytotoxicity assay (resazurin), A172 cells; format: cell-based; conditions: Homo sapiens, A 172, read-out: Cell Viability A172 IC50
Procedure: as §4

As-Pc-1 cells = assay: Cytotoxicity assay (resazurin), As-Pc-1 cells; format: cell-based; conditions: Homo sapiens, ASPC1, read-out: Cell Viability AsPC-1 IC50
Procedure: as §4

LoVo cells = assay: Cell proliferation assay (Cell Titer-Glo), LoVo cells; format: cell-based; conditions: Homo sapiens, typically 72 hrs post-treatment
Procedure: as §1, §2, §3

HCT-116 cells = assay: Cell proliferation assay (Cell Titer-Glo), HCT-116 cells; format: cell-based; conditions: Homo sapiens, typically 72 hrs post-treatment, read-out: IC50 HCT116
Procedure: as §1, §2, §3

NCI-H460 cells = assay: Cell proliferation assay (Cell Titer-Glo), NCI-H460 cells; format: cell-based; conditions: Homo sapiens, typically 72 hrs post-treatment
Procedure: as §1, §2, §3

CDC2 at Tyr15 residue = conditions: in combination with gemcitabine, carboplatin, or cisplatin; cited from earlier work
[4] = then compound + cisplatin 72 hr, read-out: Cell viability IC50 in A427 cells with 2.5 μM cisplatin: 24 hr cisplatin then compound + cisplatin
[5] = then compound alone 72 hr, read-out: Cell viability IC50 in A427 cells with 2.5 μM cisplatin: 24 hr cisplatin then compound

CC1(C)CNCc2cc(Nc3ncc4c(n3)OCN(c3c(Cl)cccc3Cl)C4=O)ccc21 [Example 1.10]
IC50 (A2780 cells): 3.85 µM | IC50 (A427 cells [1]; [4]): < 0.014 µM | IC50 (A427 cells [1]; [5]): 0.36 µM | IC50 (A427 cells [2]): 1.99 µM | IC50 (A427 cells [3]): 1.67 µM | IC50 (WEE1 kinase enzyme): 0.011 µM | IC50 (A549 cells): 2.6 µM

Cc1cc(Nc2ncc3c(n2)OCN(c2c(Cl)cccc2Cl)C3=O)ccc1C1CCNCC1 [Example 1.60]
IC50 (Panc-10.05 cells): 2.85 µM | IC50 (A427 cells [2]): 2.58 µM | IC50 (WEE1 kinase enzyme): 0.0435 µM | IC50 (MDAMB231 cells): 5.34 µM | IC50 (A172 cells): 4.8 µM | IC50 (A549 cells): 8.34 µM | IC50 (As-Pc-1 cells): 2.91 µM

CC1(C)CN(C(=O)CO)Cc2cc(Nc3ncc4c(n3)OCN(c3c(Cl)cccc3Cl)C4=O)ccc21 [Example 1.3]
IC50 (LoVo cells): 8.26 µM | IC50 (A427 cells [2]): 4.52 µM | IC50 (A427 cells [3]): 5.98 µM | IC50 (WEE1 kinase enzyme): 0.04 µM | IC50 (HCT-116 cells): 8.12 µM | IC50 (NCI-H460 cells): > 10 µM | IC50 (A549 cells): 2.99 µM

C=CCn1c(=O)c2cnc(Nc3ccc(N4CCN(C)CC4)cc3)nc2n1-c1cccc(C(C)(C)O)n1 [MK-1775, 1,2-allyl-1-(6-(2-hydroxypropan-2-yl)pyridin-2-yl)-6-((4-(4methylpiperazin-1-yl)phenyl)amino)-1H-pyrazolo[3,4-d]pyrimidin-3 (2H)-one]
Phosphorylation of CDC2 at Tyr15 (CDC2 at Tyr15 residue): abolished the phosphorylation of CDC2 at Tyr15 residue

N#Cc1cc(Nc2ncc3c(n2)OCN(c2c(Cl)cccc2Cl)C3=O)ccc1N1CCNCC1 [Example 1.55, 5-(3-(2,6-dichlorophenyl)-4-oxo-3,4-dihydro-2H-pyrimido[5,4-e][1,3]oxazin-7-ylamino)-2-(piperazin-1-yl)benzonitrile]
IC50 (A2780 cells): 6.8 µM | IC50 (A427 cells [1]; [4]): < 0.014 µM | IC50 (A427 cells [1]; [5]): 0.53 µM | IC50 (A427 cells [2]): 2.32 µM | IC50 (WEE1 kinase enzyme): 0.106 µM | IC50 (A549 cells): 1.59 µM

O=C1c2cnc(Nc3ccc(N4CCNCC4)c(CO)c3)nc2OCN1c1c(Cl)cccc1Cl [Example 1.16]
IC50 (A427 cells [1]; [4]): < 0.014 µM | IC50 (A427 cells [1]; [5]): 0.18 µM | IC50 (A427 cells [2]): 2.13 µM | IC50 (A427 cells [3]): 3.04 µM | IC50 (WEE1 kinase enzyme): 0.049 µM | IC50 (A549 cells): 3.98 µM

O=C1c2cnc(Nc3ccc4c(c3)CNCC43CC3)nc2OCN1c1c(Cl)cccc1Cl [Example 1.51, 3-(2,6-dichlorophenyl)-7-(2′,3′-dihydro-1′H-spiro[cyclopropane-1,4′-isoquinoline]-7′-ylamino)-2H-pyrimido[5,4-e][1,3]oxazin-4(3H)-one]
IC50 (Panc-10.05 cells): 3.34 µM | IC50 (A427 cells [2]): 3.04 µM | IC50 (WEE1 kinase enzyme): 0.011 µM | IC50 (MDAMB231 cells): 8.76 µM | IC50 (A172 cells): 8 µM | IC50 (A549 cells): 6.45 µM | IC50 (As-Pc-1 cells): 3.21 µM

O=C1c2cnc(Nc3ccc4c(c3)CNCC4)nc2OCN1c1c(Cl)cccc1Cl [Example 1.24]
IC50 (A427 cells [1]; [4]): 0.06 µM | IC50 (A427 cells [1]; [5]): 0.12 µM | IC50 (A427 cells [2]): 2.96 µM | IC50 (A427 cells [3]): 2.85 µM | IC50 (WEE1 kinase enzyme): 0.035 µM | IC50 (A549 cells): 6.45 µM

CC1(C)NCCc2cc(Nc3ncc4c(n3)OCN(c3c(Cl)cccc3Cl)C4=O)ccc21 [Example 1.227]
IC50 (Panc-10.05 cells): 4.93 µM | IC50 (A427 cells [2]): 2.2 µM | IC50 (WEE1 kinase enzyme): 0.021 µM | IC50 (MDAMB231 cells): 8.78 µM | IC50 (A172 cells): 6.62 µM | IC50 (A549 cells): 9.04 µM | IC50 (As-Pc-1 cells): 2.94 µM

COc1cc(Nc2ncc3c(n2)OCN(c2c(Cl)cccc2Cl)C3=O)ccc1N1CCNCC1 [Example 1.53, 3-(2,6-dichlorophenyl)-7-(3-methoxy-4-(piperazin-1-yl)phenylamino)-2H-pyrimido[5,4-e][1,3]oxazin-4(3H)-one dihydrochloride]
IC50 (Panc-10.05 cells): 9.34 µM | IC50 (A427 cells [2]): 3.61 µM | IC50 (WEE1 kinase enzyme): 0.033 µM | IC50 (MDAMB231 cells): 10.5 µM | IC50 (A172 cells): 9.68 µM | IC50 (A549 cells): 4.72 µM | IC50 (As-Pc-1 cells): 2.41 µM

O=C1c2cnc(Nc3ccc(C4CCNCC4)cc3)nc2OCN1c1c(Cl)cccc1Cl [Example 1.12]
IC50 (Panc-10.05 cells): 3.17 µM | IC50 (A427 cells [2]): 3.58 µM | IC50 (A427 cells [3]): 3.43 µM | IC50 (WEE1 kinase enzyme): 0.0735 µM | IC50 (MDAMB231 cells): 9.04 µM | IC50 (A172 cells): 7.13 µM | IC50 (A549 cells): 4.7 µM | IC50 (As-Pc-1 cells): 7.88 µM

Source: patent US10807994B2, “Heterocyclic compounds and uses thereof” (NUVATION BIO INC., priority 2017, dated 2020)
